How the values were obtained:
[1] = target: T1, Human CD73 (amino acid residues 27-549) (Homo sapiens, UniProt P21589); assay: CD73 enzymatic assay (luciferase-based indirect assay, CellTiter-Glo); assay type: biochemical; conditions: 0.4 nM CD73, 150 μM AMP, 1 hour at room temperature
T1 construct: Human CD73 (amino acid residues 27-549); His tag (N); made in house; host or cells: E. coli
T1 sequence (P21589 27-549): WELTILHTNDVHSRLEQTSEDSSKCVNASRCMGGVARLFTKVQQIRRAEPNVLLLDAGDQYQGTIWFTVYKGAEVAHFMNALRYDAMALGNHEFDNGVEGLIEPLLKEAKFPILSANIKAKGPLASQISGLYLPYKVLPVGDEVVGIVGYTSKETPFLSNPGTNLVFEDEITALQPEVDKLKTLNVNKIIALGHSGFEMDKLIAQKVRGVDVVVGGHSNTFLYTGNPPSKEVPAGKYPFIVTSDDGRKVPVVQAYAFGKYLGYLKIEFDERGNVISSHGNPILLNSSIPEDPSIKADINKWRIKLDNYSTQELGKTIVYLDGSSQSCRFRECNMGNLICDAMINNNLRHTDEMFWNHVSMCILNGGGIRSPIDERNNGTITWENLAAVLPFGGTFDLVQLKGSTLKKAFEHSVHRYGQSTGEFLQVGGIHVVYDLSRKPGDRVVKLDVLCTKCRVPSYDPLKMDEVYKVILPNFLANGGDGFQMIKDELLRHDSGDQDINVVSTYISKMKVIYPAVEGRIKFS
Method in brief: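 His-tagged human CD73 (27-549) from E. coli, 0.4 nM, with 150 μM AMP in 50 mM HEPES pH 7.4, 0.01% Tween 20; 1 h at room temperature. AMP remaining read by CellTiter-Glo 2.0 luminescence with 1 μM final ATP after 30 min. IC50 from nonlinear regression of % inhibition.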

[2] = target: T2, human CD73 (Homo sapiens, UniProt P21589); assay: Inhibitor activity against CD73 in cell based assay (CD73 expressing CHO-K1 cells); conditions: CHO-K1 cells expressing human CD73, 150 μM AMP, 4 hours of incubation; read-out: CHO-K1 CELL VARIANT: CD73 IC50
T2 construct: expressed in transfected cells
T2 sequence (P21589 27-549): T1 sequence (P21589 27-549)
Method in brief: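 Stably transfected CHO-K1 cells expressing human CD73 (1×10^4/well) incubated 4 h with compound (8-point 1:3 titration, top 10 μM final, 0.2% DMSO) and 150 μM AMP. Residual AMP in supernatant measured by CellTiter-Glo luminescence with 1 μM ATP after 30 min at room temperature; IC50 by nonlinear regression of percent inhibition vs high/low controls.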

SMILES | IC50 [1] | IC50 [2]
Cc1ccccc1S(=O)(=O)N[C@H]1CC[C@H](NC(=O)O[C@@H]2CCN(c3cn[nH]c(=O)c3Cl)C2)CC1 [P-0250, (R)-1-(5-chloro-6-oxo-1,6-dihydropyridazin-4-yl)pyrrolidin-3-yl ((1r,4R)-4-((2-methylphenyl)sulfonamido)cyclohexyl)carbamate] | 0.001 to 10 µM | 0.001 to 10 µM
COc1ccc(S(=O)(=O)N[C@H]2CC[C@H](NC(=O)O[C@@H]3CCN(c4cn[nH]c(=O)c4Cl)C3)CC2)cc1 [P-0251, (R)-1-(5-chloro-6-oxo-1,6-dihydropyridazin-4-yl)pyrrolidin-3-yl ((1r,4R)-4-((4-methoxyphenyl)sulfonamido)cyclohexyl)carbamate] | 0.001 to 10 µM | 0.001 to 10 µM
COc1ccc(S(=O)(=O)N[C@H]2CC[C@H](NC(=O)O[C@@H]3CCN(c4cn[nH]c(=O)c4Cl)C3)CC2)cn1 [P-0252, (R)-1-(5-chloro-6-oxo-1,6-dihydropyridazin-4-yl)pyrrolidin-3-yl ((1r,4R)-4-((6-methoxypyridine)-3-sulfonamido)cyclohexyl) carbamate] | 0.001 to 10 µM | 0.001 to 10 µM
Cn1cc(S(=O)(=O)N[C@H]2CC[C@H](NC(=O)O[C@@H]3CCN(c4cn[nH]c(=O)c4Cl)C3)CC2)cn1 [P-0255, (R)-1-(5-chloro-6-oxo-1,6-dihydropyridazin-4-yl)pyrrolidin-3-yl ((1r,4R)-4-((1-methyl-1H-pyrazole)-4-sulfonamido)cyclohexyl) carbamate] | 0.001 to 10 µM | 0.001 to 10 µM
O=C(N[C@H]1CC[C@H](NC(=O)C2CCCC2)CC1)O[C@@H]1CCN(c2cn[nH]c(=O)c2Cl)C1 [P-0259, (R)-1-(5-chloro-6-oxo-1,6-dihydropyridazin-4-yl)pyrrolidin-3-yl ((1r,4R)-4-(cyclopentanecarboxamido)cyclohexyl)carbamate] | 0.001 to 10 µM | 0.001 to 10 µM
O=C(N[C@H]1CC[C@H](NC(=O)c2ccccn2)CC1)O[C@@H]1CCN(c2cn[nH]c(=O)c2Cl)C1 [P-0260, (R)-1-(5-chloro-6-oxo-1,6-dihydropyridazin-4-yl)pyrrolidin-3-yl ((1r,4R)-4-(picolinamido)cyclohexyl) carbamate] | 0.001 to 10 µM | 0.001 to 10 µM
N#Cc1ccc(C(=O)N[C@H]2CC[C@H](NC(=O)O[C@@H]3CCN(c4cn[nH]c(=O)c4Cl)C3)CC2)cc1 [P-0261, (R)-1-(5-chloro-6-oxo-1,6-dihydropyridazin-4-yl)pyrrolidin-3-yl ((1r,4R)-4-(4-cyanobenzamido)cyclohexyl) carbamate] | 0.001 to 10 µM | 0.001 to 10 µM
CC(C)(C)C(=O)N[C@H]1CC[C@H](NC(=O)O[C@@H]2CCN(c3cn[nH]c(=O)c3Cl)C2)CC1 [P-0262, (R)-1-(5-chloro-6-oxo-1,6-dihydropyridazin-4-yl)pyrrolidin-3-yl ((1r,4R)-4-pivalamidocyclohexyl) carbamate] | 0.001 to 10 µM | 0.001 to 10 µM
CC(C)C(=O)N[C@H]1CC[C@H](NC(=O)O[C@@H]2CCN(c3cn[nH]c(=O)c3Cl)C2)CC1 [P-0263] | 0.001 to 10 µM | 10 to 100 µM
O=C(N[C@H]1CC[C@H](NC(=O)c2ccncc2)CC1)O[C@@H]1CCN(c2cn[nH]c(=O)c2Cl)C1 [P-0264, (R)-1-(5-chloro-6-oxo-1,6-dihydropyridazin-4-yl)pyrrolidin-3-yl ((1r,4R)-4-(isonicotinamido)cyclohexyl) carbamate] | 0.001 to 10 µM | 0.001 to 10 µM
O=C(N[C@H]1CC[C@H](NC(=O)c2ccc(Cl)cc2)CC1)O[C@@H]1CCN(c2cn[nH]c(=O)c2Cl)C1 [P-0265, (R)-1-(5-chloro-6-oxo-1,6-dihydropyridazin-4-yl)pyrrolidin-3-yl ((1r,4R)-4-(4-chlorobenzamido)cyclohexyl) carbamate] | 0.001 to 10 µM | 0.001 to 10 µM
Cc1cccc(F)c1C(=O)N[C@H]1CC[C@H](NC(=O)O[C@@H]2CCN(c3cn[nH]c(=O)c3Cl)C2)CC1 [P-0268, (R)-1-(5-chloro-6-oxo-1,6-dihydropyridazin-4-yl)pyrrolidin-3-yl ((1r,4R)-4-(2-fluoro-6-methylbenzamido)cyclohexyl) carbamate] | 0.001 to 10 µM | 0.001 to 10 µM
CCN(CC)CC(=O)N[C@H]1CC[C@H](NC(=O)O[C@@H]2CCN(c3cn[nH]c(=O)c3Cl)C2)CC1 [P-0269, (R)-1-(5-chloro-6-oxo-1,6-dihydropyridazin-4-yl)pyrrolidin-3-yl ((1r,4R)-4-(2-(diethylamino)acetamido)cyclohexyl)carbamate] | 0.001 to 10 µM | 0.001 to 10 µM
O=C(CN1CCOCC1)N[C@H]1CC[C@H](NC(=O)O[C@@H]2CCN(c3cn[nH]c(=O)c3Cl)C2)CC1 [P-0270, (R)-1-(5-chloro-6-oxo-1,6-dihydropyridazin-4-yl)pyrrolidin-3-yl ((1r,4R)-4-(2-morpholinoacetamido)cyclohexyl)carbamate] | 0.001 to 10 µM | 0.001 to 10 µM
O=C(NC1CC1)N[C@H]1CC[C@H](NC(=O)O[C@@H]2CCN(c3cn[nH]c(=O)c3Cl)C2)CC1 [P-0271, (R)-1-(5-chloro-6-oxo-1,6-dihydropyridazin-4-yl)pyrrolidin-3-yl ((1r,4R)-4-(3-cyclopropylureido)cyclohexyl) carbamate] | 0.001 to 10 µM | 0.001 to 10 µM
O=C(Nc1ccc(Cl)cc1)N[C@H]1CC[C@H](NC(=O)O[C@@H]2CCN(c3cn[nH]c(=O)c3Cl)C2)CC1 [P-0272, (R)-1-(5-chloro-6-oxo-1,6-dihydropyridazin-4-yl)pyrrolidin-3-yl ((1r,4R)-4-(3-(4-chlorophenyl)ureido)cyclohexyl)carbamate] | 0.001 to 10 µM | 0.001 to 10 µM

Second part, the compound after the results:

IC50 [1] | IC50 [2] | SMILES
0.001 to 10 µM | 0.001 to 10 µM | Cc1cccc(S(=O)(=O)N[C@H]2CC[C@H](NC(=O)O[C@@H]3CCN(c4cn[nH]c(=O)c4Cl)C3)CC2)c1 [P-0249, (R)-1-(5-chloro-6-oxo-1,6-dihydropyridazin-4-yl)pyrrolidin-3-yl ((1r,4R)-4-((3-methylphenyl)sulfonamido)cyclohexyl)carbamate]
0.001 to 10 µM | 0.001 to 10 µM | O=C(N[C@H]1CC[C@H](NS(=O)(=O)c2ccc(C(F)(F)F)nc2)CC1)O[C@@H]1CCN(c2cn[nH]c(=O)c2Cl)C1 [P-0253, (R)-1-(5-chloro-6-oxo-1,6-dihydropyridazin-4-yl)pyrrolidin-3-yl ((1r,4R)-4-((6-(trifluoromethyl)pyridine)-3-sulfonamido)cyclohexyl) carbamate]
0.001 to 10 µM | 0.001 to 10 µM | O=C(N[C@H]1CC[C@H](NS(=O)(=O)c2ccc(C(F)(F)F)cc2)CC1)O[C@@H]1CCN(c2cn[nH]c(=O)c2Cl)C1 [P-0254, (R)-1-(5-chloro-6-oxo-1,6-dihydropyridazin-4-yl)pyrrolidin-3-yl ((1r,4R)-4-((4-(trifluoromethyl)phenyl)sulfonamido)cyclohexyl)carbamate]
0.001 to 10 µM | 0.001 to 10 µM | O=C(N[C@H]1CC[C@H](NC(=O)c2cccnc2)CC1)O[C@@H]1CCN(c2cn[nH]c(=O)c2Cl)C1 [P-0256, (R)-1-(5-chloro-6-oxo-1,6-dihydropyridazin-4-yl)pyrrolidin-3-yl ((1r,4R)-4-(nicotinamido)cyclohexyl) carbamate]
0.001 to 10 µM | 0.001 to 10 µM | O=C(N[C@H]1CC[C@H](NC(=O)C2CC2)CC1)O[C@@H]1CCN(c2cn[nH]c(=O)c2Cl)C1 [P-0257, (R)-1-(5-chloro-6-oxo-1,6-dihydropyridazin-4-yl)pyrrolidin-3-yl ((1r,4R)-4-(cyclopropanecarboxamido)cyclohexyl)carbamate]
0.001 to 10 µM | 0.001 to 10 µM | O=C(N[C@H]1CC[C@H](NC(=O)C2CCC2)CC1)O[C@@H]1CCN(c2cn[nH]c(=O)c2Cl)C1 [P-0258, (R)-1-(5-chloro-6-oxo-1,6-dihydropyridazin-4-yl)pyrrolidin-3-yl ((1r,4R)-4-(cyclobutanecarboxamido)cyclohexyl)carbamate]
0.001 to 10 µM | 0.001 to 10 µM | O=C(N[C@H]1CC[C@H](NC(=O)c2ccccc2Cl)CC1)O[C@@H]1CCN(c2cn[nH]c(=O)c2Cl)C1 [P-0266, (R)-1-(5-chloro-6-oxo-1,6-dihydropyridazin-4-yl)pyrrolidin-3-yl ((1r,4R)-4-(2-chlorobenzamido)cyclohexyl) carbamate]
0.001 to 10 µM | 0.001 to 10 µM | O=C(N[C@H]1CC[C@H](NC(=O)c2c(F)cccc2F)CC1)O[C@@H]1CCN(c2cn[nH]c(=O)c2Cl)C1 [P-0267, (R)-1-(5-chloro-6-oxo-1,6-dihydropyridazin-4-yl)pyrrolidin-3-yl ((1r,4R)-4-(2,6-difluorobenzamido)cyclohexyl) carbamate]

From patent US12509444B2, “Compounds and methods for CD73 modulation and indications therefor” (Plexxikon Inc., priority 2019, dated 2025)
